Data taken from US10703755B2, “Substituted purine derivative” (SUMITOMO DAINIPPON PHARMA CO., LTD., priority 2016, dated 2020).

molecular target: human TLR7 (Homo sapiens (Human), UniProt Q9NYK1); test: Test for evaluating the inhibition of the activation of human TLR7 (SEAP reporter, TLR7/NF-κB/SEAPorter HEK293 cell); assay type: cell-based; conditions: R-848 200 nmol/L, SEAP activity, result in words
Method: As human TLR7 expressing cell line, HEK293 cell line was bought from IMGENEX Corporation (TLR7/NF-ηB/SEAPorter™ HEK293 cell), which is human embryonic kidney cell line and stably expresses full-length human TLR7 gene and secreted alkaline phosphatase (SEAP) reporter gene under the transcriptional control of an NE-ηB response element. The TLR7/NF-ηB/SEAPorter™ HEK293 cell was cultivated with DMEM containing 10% fetal bovine serum (FBS) and 10 μg/mL blasticidin S at 37° C. in the presence of 5% CO2. The TLR7/NF-ηB/SEAPorter™ HEK293 cell was seeded into 96-well microtiter plate at 5×10^4 cell/90 μL/well, and the place was cultivated at 37° C. in a CO2 incubator overnight.
Each compound prepared in the Examples was evaluated by Test 1.

Chain of human TLR7 (Q9NYK1 27-1049): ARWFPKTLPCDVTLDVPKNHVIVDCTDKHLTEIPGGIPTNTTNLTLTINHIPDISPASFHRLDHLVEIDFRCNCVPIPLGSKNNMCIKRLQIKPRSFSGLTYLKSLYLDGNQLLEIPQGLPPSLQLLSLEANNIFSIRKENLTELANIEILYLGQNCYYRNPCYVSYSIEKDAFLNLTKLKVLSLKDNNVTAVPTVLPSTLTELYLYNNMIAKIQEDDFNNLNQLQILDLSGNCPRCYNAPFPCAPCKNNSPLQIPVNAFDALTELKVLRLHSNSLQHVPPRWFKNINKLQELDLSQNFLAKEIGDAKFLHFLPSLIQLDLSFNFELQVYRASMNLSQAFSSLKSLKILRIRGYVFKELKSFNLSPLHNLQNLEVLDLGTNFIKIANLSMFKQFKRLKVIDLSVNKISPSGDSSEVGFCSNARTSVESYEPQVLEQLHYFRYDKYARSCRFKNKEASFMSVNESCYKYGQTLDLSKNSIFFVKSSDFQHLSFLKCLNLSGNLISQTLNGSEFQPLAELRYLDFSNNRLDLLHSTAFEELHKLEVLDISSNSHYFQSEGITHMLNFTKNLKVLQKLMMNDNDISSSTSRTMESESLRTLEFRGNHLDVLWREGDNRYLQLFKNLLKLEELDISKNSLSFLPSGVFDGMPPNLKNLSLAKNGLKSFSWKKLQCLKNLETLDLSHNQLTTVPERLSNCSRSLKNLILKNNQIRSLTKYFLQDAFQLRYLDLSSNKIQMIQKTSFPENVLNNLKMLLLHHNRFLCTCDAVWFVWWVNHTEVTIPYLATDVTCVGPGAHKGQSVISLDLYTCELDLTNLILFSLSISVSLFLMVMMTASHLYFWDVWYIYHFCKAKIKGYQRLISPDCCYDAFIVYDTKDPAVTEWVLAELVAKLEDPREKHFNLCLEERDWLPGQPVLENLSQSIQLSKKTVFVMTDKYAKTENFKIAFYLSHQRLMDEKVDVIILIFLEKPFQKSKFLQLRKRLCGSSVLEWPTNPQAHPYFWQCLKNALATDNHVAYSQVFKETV

Row | SMILES | inhibitory effect against TLR7 in the test for evaluating inhibition of the activation of TLR7
1 | COc1nc(C)c2nc(-c3cncc(C#N)c3)n(Cc3ccc(C4CN5CCC4CC5)cc3F)c2n1 (single isomer, unassigned) [Example 403, 5-{9-[4-(1-azabicyclo[2.2.2]oct-3-yl)-2-fluorobenzyl]-2-methoxy-6-methyl-9H-purin-8-yl}pyridine-3-carbonitrile] | potent inhibitory effect against TLR7

same assay, conditions: R-848 200 nmol/L, SEAP reporter

Row | SMILES | IC50
2 | COc1nc(C)c2nc(-c3cncc(F)c3)n(Cc3ccc(C4CN5CCC4CC5)cc3F)c2n1 (single isomer, unassigned) [Example 392, 9-[4-(1-azabicyclo[2.2.2]oct-3-yl)-2-fluorobenzyl]-8-(5-fluoropyridin-3-yl)-2-methoxy-6-methyl-9H-purine] | 0.013 µM
3 | COc1nc(C)c2nc(-c3cncc(F)c3)n(Cc3ccc(C4CN5CCC4CC5)cc3F)c2n1 (single isomer, unassigned) [Example 393, 9-[4-(1-azabicyclo[2.2.2]oct-3-yl)-2-fluorobenzyl]-8-(5-fluoropyridin-3-yl)-2-methoxy-6-methyl-9H-purine] | 0.001 µM
4 | COc1nc(C)c2nc(-c3cncc(C#N)c3)n(Cc3ccc(C4CN5CCC4CC5)cc3F)c2n1 (single isomer, unassigned) [Example 402, 5-{9-[4-(1-azabicyclo[2.2.2]oct-3-yl)-2-fluorobenzyl]-2-methoxy-6-methyl-9H-purin-8-yl}pyridine-3-carbonitrile] | 0.132 µM
5 | COc1nc(C)c2nc(-c3cncc(C#N)c3)n(Cc3ccc(C4CN5CCC4CC5)cc3F)c2n1 (single isomer, unassigned) [Example 403, 5-{9-[4-(1-azabicyclo[2.2.2]oct-3-yl)-2-fluorobenzyl]-2-methoxy-6-methyl-9H-purin-8-yl}pyridine-3-carbonitrile] | 0.021 µM
6 | CCCCOc1nc(N)c2nc(-c3cncc(F)c3)n(Cc3ccccc3)c2n1 [Example 1, 9-Benzyl-2-butoxy-8-(5-fluoropyridin-3-yl)-9H-purine-6-amine] | 2.3 µM
7 | CCCCOc1nc(N)c2nc(-c3cccnc3)n(Cc3ccccc3)c2n1 [Example 2] | 5.5 µM
8 | CCCCOc1nc(N)c2nc(-c3cccnc3)n(Cc3cccnc3)c2n1 [Example 3] | 9.2 µM
9 | CCCCOc1nc(N)c2nc(-c3ccncc3)n(Cc3ccccc3)c2n1 [Example 4] | 7.8 µM
10 | CCCCOc1nc(N)c2nc(-c3cncnc3)n(Cc3ccccc3)c2n1 [Example 5] | 1.4 µM
11 | CCCCOc1nc(N)c2nc(-c3cnc(N)nc3)n(Cc3ccccc3)c2n1 [Example 6] | 9.6 µM
12 | CCCCOc1nc(N)c2nc(-c3ccoc3)n(Cc3ccccc3)c2n1 [Example 7] | 7.8 µM
13 | CCCCOc1nc(N)c2nc(-c3cnn(C)c3)n(Cc3ccccc3)c2n1 [Example 8] | 9.3 µM
14 | CCCCOc1nc(N)c2nc(-c3ccccc3)n(Cc3cccnc3)c2n1 [Example 9] | 12.8 µM
15 | CCCCOc1nc(N)c2nc(-c3cncc(OC)c3)n(Cc3ccccc3)c2n1 [Example 10] | 0.8 µM
16 | CCCCOc1nc(N)c2nc(-c3ccccc3)n(Cc3ccccc3)c2n1 [Example 11] | 10.9 µM
17 | CCCCOc1nc(N)c2nc(-c3cccc(OC)c3)n(Cc3ccccc3)c2n1 [Example 12] | 9.2 µM
18 | CCCCOc1nc(N)c2nc(-c3cccc(Cl)c3)n(Cc3ccccc3)c2n1 [Example 13] | 9.3 µM
19 | CCCCOc1nc(N)c2nc(-c3cncc(Cl)c3)n(Cc3ccccc3)c2n1 [Example 17] | 1.1 µM
20 | CCCCOc1nc(N)c2nc(-c3cncc(C)c3)n(Cc3ccccc3)c2n1 [Example 18] | 2.7 µM
21 | CCCCOc1nc(N)c2nc(-c3cncc(COC)c3)n(Cc3ccccc3)c2n1 [Example 19] | 1.4 µM
22 | CCCCOc1nc(N)c2nc(-c3cncc(CO)c3)n(Cc3ccccc3)c2n1 [Example 20] | 22.5 µM
23 | CCOc1nc(N)c2nc(-c3cncc(F)c3)n(Cc3ccccc3)c2n1 [Example 21] | 0.7 µM
24 | CCOc1nc(N)c2nc(-c3cncc(F)c3)n(Cc3cccnc3)c2n1 [Example 22] | 2 µM
25 | COCCOc1nc(N)c2nc(-c3cncc(OC)c3)n(Cc3ccccc3)c2n1 [Example 24] | 13.7 µM
26 | COCCOc1nc(N)c2nc(-c3cncc(F)c3)n(Cc3ccccc3)c2n1 [Example 25] | 3.5 µM
27 | CCCCNc1nc(N)c2nc(-c3cncc(OC)c3)n(Cc3ccccc3)c2n1 [Example 26] | 18.7 µM
28 | CCCCCc1nc(N)c2nc(-c3cncc(OC)c3)n(Cc3ccccc3)c2n1 [Example 27] | 1.4 µM
